# Tests used:
# [1] = tested on: Tyrosine-protein kinase ABL1 (Homo sapiens), P00519 [H396P]; settings: Compound concentration 1000.0 nM
# [2] = tested on: Tyrosine-protein kinase ABL1 (Homo sapiens), P00519 [Q252H]; settings: Compound concentration 1000.0 nM
# [3] = tested on: Tyrosine-protein kinase ABL1 (Homo sapiens), P00519 [T315I]; settings: Compound concentration 1000.0 nM
# [4] = target: Ankyrin repeat and protein kinase domain-containing protein 1 (Homo sapiens) (UniProt Q8NFD2); settings: Compound concentration 1000.0 nM
# [5] = target: Calcium/calmodulin-dependent protein kinase type 1B (Homo sapiens) (UniProt Q6P2M8); settings: Compound concentration 1000.0 nM
# Chain of Calcium/calmodulin-dependent protein kinase type 1B (Homo sapiens) (Q6P2M8 whole entry): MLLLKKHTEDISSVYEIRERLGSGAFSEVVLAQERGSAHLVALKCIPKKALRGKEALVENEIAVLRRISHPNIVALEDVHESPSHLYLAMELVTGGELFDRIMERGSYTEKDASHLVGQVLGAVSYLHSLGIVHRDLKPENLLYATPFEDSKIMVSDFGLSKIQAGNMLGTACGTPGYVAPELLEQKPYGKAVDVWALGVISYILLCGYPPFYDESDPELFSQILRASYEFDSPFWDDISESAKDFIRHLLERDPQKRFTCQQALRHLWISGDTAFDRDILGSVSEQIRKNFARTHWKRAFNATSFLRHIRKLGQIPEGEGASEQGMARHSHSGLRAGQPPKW
# [6] = target: Cyclin-dependent kinase 11B (Homo sapiens) (UniProt P21127); settings: Compound concentration 1000.0 nM
# [7] = target: Cyclin-dependent kinase 3 (Homo sapiens) (UniProt Q00526); settings: Compound concentration 1000.0 nM
# [8] = target: Cyclin-dependent kinase-like 1 (Homo sapiens) (UniProt Q00532); settings: Compound concentration 1000.0 nM
# [9] = target: Dual specificity protein kinase CLK2 (Homo sapiens) (UniProt P49760); settings: Compound concentration 1000.0 nM
# [10] = target: Dual specificity protein kinase CLK3 (Homo sapiens) (UniProt P49761); settings: Compound concentration 1000.0 nM
# [11] = target: Tyrosine-protein kinase CSK (Homo sapiens) (UniProt P41240); settings: Compound concentration 1000.0 nM
# [12] = target: Serine/threonine-protein kinase DCLK1 (Homo sapiens) (UniProt O15075); settings: Compound concentration 1000.0 nM
# [13] = target: Serine/threonine-protein kinase 17A (Homo sapiens) (UniProt Q9UEE5); settings: Compound concentration 1000.0 nM
# [14] = tested on: Epidermal growth factor receptor (Homo sapiens), P00533 [G719S]; settings: Compound concentration 1000.0 nM
# [15] = target: Eukaryotic translation initiation factor 2-alpha kinase 1 (Homo sapiens) (UniProt Q9BQI3); settings: Compound concentration 1000.0 nM
# [16] = target: Receptor tyrosine-protein kinase erbB-4 (Homo sapiens) (UniProt Q15303); settings: Compound concentration 1000.0 nM
# [17] = target: Mitogen-activated protein kinase 7 (Homo sapiens) (UniProt Q13164); settings: Compound concentration 1000.0 nM
# [18] = target: Tyrosine-protein kinase Fer (Homo sapiens) (UniProt P16591); settings: Compound concentration 1000.0 nM
# Chain of Tyrosine-protein kinase Fer (Homo sapiens) (P16591 whole entry, looked up): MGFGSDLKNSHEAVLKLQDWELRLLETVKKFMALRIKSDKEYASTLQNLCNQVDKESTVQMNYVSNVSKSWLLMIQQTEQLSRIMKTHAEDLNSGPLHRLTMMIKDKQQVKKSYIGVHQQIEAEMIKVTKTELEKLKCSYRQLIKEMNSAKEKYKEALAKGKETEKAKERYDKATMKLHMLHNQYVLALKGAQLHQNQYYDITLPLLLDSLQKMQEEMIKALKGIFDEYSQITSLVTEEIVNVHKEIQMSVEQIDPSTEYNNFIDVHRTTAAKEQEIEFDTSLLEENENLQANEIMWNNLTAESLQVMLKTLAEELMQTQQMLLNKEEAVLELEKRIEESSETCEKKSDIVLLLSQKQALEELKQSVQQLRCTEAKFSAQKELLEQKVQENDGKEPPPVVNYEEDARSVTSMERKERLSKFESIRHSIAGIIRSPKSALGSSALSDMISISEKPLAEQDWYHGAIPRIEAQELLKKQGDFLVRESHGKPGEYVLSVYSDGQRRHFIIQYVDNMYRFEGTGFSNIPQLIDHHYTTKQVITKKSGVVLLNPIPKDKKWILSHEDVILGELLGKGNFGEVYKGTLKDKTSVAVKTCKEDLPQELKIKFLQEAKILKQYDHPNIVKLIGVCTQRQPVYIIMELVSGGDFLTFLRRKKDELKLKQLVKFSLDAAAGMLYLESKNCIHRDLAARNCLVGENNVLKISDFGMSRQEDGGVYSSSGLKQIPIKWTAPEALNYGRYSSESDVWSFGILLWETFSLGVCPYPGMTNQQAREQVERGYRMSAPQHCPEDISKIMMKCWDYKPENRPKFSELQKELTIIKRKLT
# [19] = tested on: Fibroblast growth factor receptor 3 (Homo sapiens), P22607 [G697C]; settings: Compound concentration 1000.0 nM
# [20] = target: Tyrosine-protein kinase HCK (Homo sapiens) (UniProt P08631); settings: Compound concentration 1000.0 nM
# Chain of Tyrosine-protein kinase HCK (Homo sapiens) (P08631 2-526 limits assumed): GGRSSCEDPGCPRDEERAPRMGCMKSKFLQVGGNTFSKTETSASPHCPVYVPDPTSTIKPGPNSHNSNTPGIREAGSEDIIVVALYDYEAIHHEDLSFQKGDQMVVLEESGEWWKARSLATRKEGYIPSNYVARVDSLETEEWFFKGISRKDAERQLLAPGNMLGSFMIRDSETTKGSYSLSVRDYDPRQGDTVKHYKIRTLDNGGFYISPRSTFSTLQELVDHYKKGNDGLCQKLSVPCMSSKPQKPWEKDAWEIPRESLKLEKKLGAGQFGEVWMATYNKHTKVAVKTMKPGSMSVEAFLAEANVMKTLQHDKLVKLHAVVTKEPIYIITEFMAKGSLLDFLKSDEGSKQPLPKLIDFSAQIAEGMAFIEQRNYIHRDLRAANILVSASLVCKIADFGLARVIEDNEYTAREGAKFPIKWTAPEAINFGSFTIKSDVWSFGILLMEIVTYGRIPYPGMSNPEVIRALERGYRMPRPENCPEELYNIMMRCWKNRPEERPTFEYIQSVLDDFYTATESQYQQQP
# [21] = tested on: Mast/stem cell growth factor receptor Kit (Homo sapiens), P10721 [V559D,V654A]; settings: Compound concentration 1000.0 nM
# [22] = target: Maternal embryonic leucine zipper kinase (Homo sapiens) (UniProt Q14680); settings: Compound concentration 1000.0 nM
# [23] = target: Tyrosine-protein kinase Mer (Homo sapiens) (UniProt Q12866); settings: Compound concentration 1000.0 nM
# Chain of Tyrosine-protein kinase Mer (Homo sapiens) (Q12866 whole entry): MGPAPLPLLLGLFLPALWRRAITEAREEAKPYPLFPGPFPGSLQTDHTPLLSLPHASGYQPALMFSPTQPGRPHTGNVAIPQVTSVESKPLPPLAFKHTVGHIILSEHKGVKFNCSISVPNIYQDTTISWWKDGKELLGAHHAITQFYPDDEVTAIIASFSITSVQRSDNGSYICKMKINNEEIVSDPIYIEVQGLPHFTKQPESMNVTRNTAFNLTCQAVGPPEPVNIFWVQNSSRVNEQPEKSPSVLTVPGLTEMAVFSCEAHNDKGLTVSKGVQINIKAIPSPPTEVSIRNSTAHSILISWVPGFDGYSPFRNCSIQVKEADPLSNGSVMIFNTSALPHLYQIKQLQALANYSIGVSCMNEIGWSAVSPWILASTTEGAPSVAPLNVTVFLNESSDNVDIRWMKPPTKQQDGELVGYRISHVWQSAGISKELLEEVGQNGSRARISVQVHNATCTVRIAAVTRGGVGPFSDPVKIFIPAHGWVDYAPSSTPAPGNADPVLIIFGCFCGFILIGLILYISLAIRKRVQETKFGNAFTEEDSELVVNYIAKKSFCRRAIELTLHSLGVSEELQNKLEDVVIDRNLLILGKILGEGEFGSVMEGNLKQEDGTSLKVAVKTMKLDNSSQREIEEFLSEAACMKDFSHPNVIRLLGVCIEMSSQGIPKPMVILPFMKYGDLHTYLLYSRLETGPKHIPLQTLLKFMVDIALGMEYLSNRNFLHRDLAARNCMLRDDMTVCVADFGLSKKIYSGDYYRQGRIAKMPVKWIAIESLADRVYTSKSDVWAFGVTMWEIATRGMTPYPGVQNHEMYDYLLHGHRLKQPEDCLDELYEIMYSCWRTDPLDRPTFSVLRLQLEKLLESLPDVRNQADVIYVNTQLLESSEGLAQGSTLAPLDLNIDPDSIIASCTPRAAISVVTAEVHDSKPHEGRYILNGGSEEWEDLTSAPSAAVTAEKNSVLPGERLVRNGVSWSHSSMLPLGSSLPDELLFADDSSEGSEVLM
# [24] = tested on: Hepatocyte growth factor receptor (Homo sapiens), P08581 [Y1235D]; settings: Compound concentration 1000.0 nM
# [25] = target: Serine/threonine-protein kinase NLK (Homo sapiens) (UniProt Q9UBE8); settings: Compound concentration 1000.0 nM
# Chain of Serine/threonine-protein kinase NLK (Homo sapiens) (Q9UBE8 whole entry): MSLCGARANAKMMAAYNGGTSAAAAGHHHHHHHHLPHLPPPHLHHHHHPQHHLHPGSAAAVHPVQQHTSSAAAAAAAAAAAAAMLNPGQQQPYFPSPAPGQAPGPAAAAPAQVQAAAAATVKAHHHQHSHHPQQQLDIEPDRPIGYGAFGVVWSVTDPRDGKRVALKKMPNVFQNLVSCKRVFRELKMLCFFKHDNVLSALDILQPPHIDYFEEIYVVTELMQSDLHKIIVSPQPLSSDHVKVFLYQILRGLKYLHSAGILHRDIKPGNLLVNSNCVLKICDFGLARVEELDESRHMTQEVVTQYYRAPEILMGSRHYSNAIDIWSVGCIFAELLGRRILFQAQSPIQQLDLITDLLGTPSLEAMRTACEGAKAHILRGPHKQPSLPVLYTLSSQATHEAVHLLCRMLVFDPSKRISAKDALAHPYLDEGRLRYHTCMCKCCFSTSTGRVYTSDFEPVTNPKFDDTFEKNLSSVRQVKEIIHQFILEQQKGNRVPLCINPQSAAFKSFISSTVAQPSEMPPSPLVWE
# [26] = target: Serine/threonine-protein kinase PAK 2 (Homo sapiens) (UniProt Q13177); settings: Compound concentration 1000.0 nM
# [27] = target: Serine/threonine-protein kinase PAK 3 (Homo sapiens) (UniProt O75914); settings: Compound concentration 1000.0 nM
# Chain of Serine/threonine-protein kinase PAK 3 (Homo sapiens) (O75914 whole entry, looked up): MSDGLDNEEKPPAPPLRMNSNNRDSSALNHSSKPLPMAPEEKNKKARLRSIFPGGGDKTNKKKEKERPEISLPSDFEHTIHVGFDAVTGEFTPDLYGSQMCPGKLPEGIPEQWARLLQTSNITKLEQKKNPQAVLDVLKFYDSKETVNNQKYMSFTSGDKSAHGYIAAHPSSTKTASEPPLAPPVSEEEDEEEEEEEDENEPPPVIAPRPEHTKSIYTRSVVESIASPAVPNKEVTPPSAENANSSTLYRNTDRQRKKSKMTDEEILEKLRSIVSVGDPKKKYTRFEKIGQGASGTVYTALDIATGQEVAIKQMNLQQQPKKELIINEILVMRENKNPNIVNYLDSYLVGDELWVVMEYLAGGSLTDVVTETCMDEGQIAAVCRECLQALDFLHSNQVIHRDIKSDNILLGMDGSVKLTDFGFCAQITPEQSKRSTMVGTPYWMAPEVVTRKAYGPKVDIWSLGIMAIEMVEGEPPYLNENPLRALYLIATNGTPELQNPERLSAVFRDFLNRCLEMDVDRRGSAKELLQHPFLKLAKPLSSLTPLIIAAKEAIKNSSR
# [28] = target: 3-phosphoinositide-dependent protein kinase 1 (Homo sapiens) (UniProt O15530); settings: Compound concentration 1000.0 nM
# [29] = target: Phosphorylase b kinase regulatory subunit alpha, liver isoform (Homo sapiens) (UniProt P46019); settings: Compound concentration 1000.0 nM
# [30] = tested on: Phosphatidylinositol 4,5-bisphosphate 3-kinase catalytic subunit alpha isoform (Homo sapiens), P42336 [E542K]; settings: Compound concentration 1000.0 nM
# Chain of Phosphatidylinositol 4,5-bisphosphate 3-kinase catalytic subunit alpha isoform (Homo sapiens), P42336 [E542K] (P42336 whole entry E542K, canonical isoform): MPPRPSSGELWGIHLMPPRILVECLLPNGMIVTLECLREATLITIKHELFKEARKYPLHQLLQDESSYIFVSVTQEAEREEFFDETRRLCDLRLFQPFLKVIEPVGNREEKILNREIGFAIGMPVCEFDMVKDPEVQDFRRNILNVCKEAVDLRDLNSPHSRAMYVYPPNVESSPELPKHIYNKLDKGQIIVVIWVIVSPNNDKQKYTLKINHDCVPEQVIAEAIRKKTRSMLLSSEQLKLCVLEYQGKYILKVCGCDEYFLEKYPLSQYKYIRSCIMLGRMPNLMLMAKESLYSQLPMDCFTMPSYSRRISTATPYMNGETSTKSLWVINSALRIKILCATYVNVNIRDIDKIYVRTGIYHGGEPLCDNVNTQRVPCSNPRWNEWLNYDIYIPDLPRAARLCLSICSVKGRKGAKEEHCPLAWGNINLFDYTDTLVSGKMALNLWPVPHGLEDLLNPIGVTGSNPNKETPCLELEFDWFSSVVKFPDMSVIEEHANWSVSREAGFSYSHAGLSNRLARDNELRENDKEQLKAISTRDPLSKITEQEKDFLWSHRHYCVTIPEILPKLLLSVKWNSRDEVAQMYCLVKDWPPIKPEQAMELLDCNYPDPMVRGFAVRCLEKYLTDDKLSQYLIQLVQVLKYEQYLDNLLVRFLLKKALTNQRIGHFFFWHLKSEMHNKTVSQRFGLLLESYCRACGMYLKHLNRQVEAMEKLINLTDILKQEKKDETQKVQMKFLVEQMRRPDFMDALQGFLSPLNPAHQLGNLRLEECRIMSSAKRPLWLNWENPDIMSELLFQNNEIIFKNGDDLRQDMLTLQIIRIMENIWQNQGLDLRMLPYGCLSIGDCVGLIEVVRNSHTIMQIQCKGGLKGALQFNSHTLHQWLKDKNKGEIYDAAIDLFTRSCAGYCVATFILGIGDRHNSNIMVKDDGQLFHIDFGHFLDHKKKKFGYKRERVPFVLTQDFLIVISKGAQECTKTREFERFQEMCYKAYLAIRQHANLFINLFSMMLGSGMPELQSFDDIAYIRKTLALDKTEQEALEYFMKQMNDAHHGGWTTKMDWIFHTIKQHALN
# [31] = target: Serine/threonine-protein kinase D2 (Homo sapiens) (UniProt Q9BZL6); settings: Compound concentration 1000.0 nM
# [32] = target: Ribosomal protein S6 kinase alpha-4 (Homo sapiens) (UniProt O75676); settings: Compound concentration 1000.0 nM
# [33] = target: Ribosomal protein S6 kinase beta-1 (Homo sapiens) (UniProt P23443); settings: Compound concentration 1000.0 nM
# [34] = target: Serine/threonine-protein kinase SBK1 (Homo sapiens) (UniProt Q52WX2); settings: Compound concentration 1000.0 nM
# [35] = target: Serine/threonine-protein kinase SIK2 (Homo sapiens) (UniProt Q9H0K1); settings: Compound concentration 1000.0 nM
# [36] = target: Tyrosine-protein kinase Srms (Homo sapiens) (UniProt Q9H3Y6); settings: Compound concentration 1000.0 nM
# [37] = target: STE20/SPS1-related proline-alanine-rich protein kinase (Homo sapiens) (UniProt Q9UEW8); settings: Compound concentration 1000.0 nM
# [38] = target: TGF-beta receptor type-2 (Homo sapiens) (UniProt P37173); settings: Compound concentration 1000.0 nM
# [39] = target: Mitogen-activated protein kinase kinase kinase 19 (Homo sapiens) (UniProt Q56UN5); settings: Compound concentration 1000.0 nM
# [40] = target: Tyrosine-protein kinase ZAP-70 (Homo sapiens) (UniProt P43403); settings: Compound concentration 1000.0 nM
# [41] = target: 5-hydroxytryptamine receptor 2B (Homo sapiens, UniProt P41595); settings: Compound concentration 10.0 uM
# [42] = target: 5-hydroxytryptamine receptor 7 (Homo sapiens) (UniProt P34969); settings: Compound concentration 10.0 uM
# [43] = target: Mu-type opioid receptor (Homo sapiens) (UniProt P35372); settings: Compound concentration 10.0 uM
# [44] = target: Beta-1 adrenergic receptor (Homo sapiens, UniProt P08588); settings: Compound concentration 10.0 uM
# [45] = target: Sigma non-opioid intracellular receptor 1 (Homo sapiens) (UniProt Q99720); settings: Compound concentration 10.0 uM
compound,measurement,setting,value
CC(C)(O)c1cncc(-c2nc3ccc(F)cc3n2C2CC2)c1 [MSD-CYP11B2],residual activity,[1],85%
same,residual activity,[2],89%
same,residual activity,[3],100%
same,residual activity,[4],100%
same,residual activity,[5],100%
same,residual activity,[6],100%
same,residual activity,[7],100%
same,residual activity,[8],100%
same,residual activity,[9],100%
same,residual activity,[10],100%
same,residual activity,[11],100%
same,residual activity,[12],88%
same,residual activity,[13],94%
same,residual activity,[14],100%
same,residual activity,[15],100%
same,residual activity,[16],100%
same,residual activity,[17],100%
same,residual activity,[18],100%
same,residual activity,[19],100%
same,residual activity,[20],100%
same,residual activity,[21],87%
same,residual activity,[22],100%
same,residual activity,[23],96%
same,residual activity,[24],100%
same,residual activity,[25],100%
same,residual activity,[26],100%
same,residual activity,[27],100%
same,residual activity,[28],97%
same,residual activity,[29],100%
same,residual activity,[30],84%
same,residual activity,[31],100%
same,residual activity,[32],100%
same,residual activity,[33],100%
same,residual activity,[34],100%
same,residual activity,[35],100%
same,residual activity,[36],100%
same,residual activity,[37],100%
same,residual activity,[38],100%
same,residual activity,[39],93%
same,residual activity,[40],100%
same,inhibition,[41],63.1%
same,inhibition,[42],-2.18%
same,inhibition,[43],0.18%
same,inhibition,[44],59.4%
same,inhibition,[45],27.7%
FC(F)(F)c1ccc2c(c1)nc(-c1cccnc1)n2C1CC1 [MSD-CYP11B2-Negative-control],residual activity,[1],82%
same,residual activity,[2],81%
same,residual activity,[3],100%
same,residual activity,[4],100%
same,residual activity,[5],100%
same,residual activity,[6],100%
same,residual activity,[7],100%
same,residual activity,[8],91%
same,residual activity,[9],100%
same,residual activity,[10],100%
same,residual activity,[11],100%
same,residual activity,[12],84%
same,residual activity,[13],100%
same,residual activity,[14],93%
same,residual activity,[15],100%
same,residual activity,[16],100%
same,residual activity,[17],100%
same,residual activity,[18],100%
same,residual activity,[19],100%
same,residual activity,[20],100%
same,residual activity,[21],100%
same,residual activity,[22],94%
same,residual activity,[23],79%
same,residual activity,[24],100%
same,residual activity,[25],100%
same,residual activity,[26],100%
same,residual activity,[27],100%
same,residual activity,[28],94%
same,residual activity,[29],100%
same,residual activity,[30],100%
same,residual activity,[31],100%
same,residual activity,[32],100%
same,residual activity,[33],100%
same,residual activity,[34],100%
same,residual activity,[35],100%
same,residual activity,[36],95%
same,residual activity,[37],100%
same,residual activity,[38],100%
same,residual activity,[39],99%
same,residual activity,[40],100%
same,inhibition,[41],79.7%
same,inhibition,[42],0.88%
same,inhibition,[43],-2.5%
same,inhibition,[44],13.4%
same,inhibition,[45],16.9%

# — ChEMBL document CHEMBL4507294, “Data for DCP probe MSD-CYP11B2” (2021)
